In brackets after ≈: the same amount, converted by molar mass. Read-outs that look alike come from different tables or passages of the source.
What was measured:
Pasteurella multocida [1] = assay: Pasteurella infection in one-day-old chicks, medicated drinking water (Table XIII); assay type: in vivo; settings: Administered in the available drinking water at 2 g/gal
Description: (§1) Many of the C-20 modified derivatives of this invention have also shown in vivo antibacterial activity against infections induced by gram-negative bacteria. Tables XII and XIII summarize the results of tests in which illustrative compounds were evaluated against a Pasteurella infection in one-day-old chicks. The compounds were administered parenterally or orally after challenge of the chicks with Pasteurella multocida (0.1 ml of a 10^-4 dilution of a twenty-hour tryptose broth culture of an avian P. multocida given subcutaneously). In these tests, unless indicated otherwise, all non-medicated infected chicks died within 24 hours of Pasteurella challenge. In the tests summarized in Table XII, the compounds were administered by subcutaneous injection at a dosage of 30 mg/kg, 1 and 4 hours post-challenge of the chicks with P. multocida. In the tests summarized in Table XIII the compounds were administered in medicated drinking water (at a level of 2 g/gal) available from 4 to 20 hours prior to challenge of the chicks with P. multocida and during the 3 -day test period.
^a Administered in the available drinking water at a concentration of […]

[2] = test system: Pasteurella multocida 17E; assay: MIC, broth-dilution microtiter test (Table X); assay type: cell-based; settings: Bovine isolate
From the text: (§2) The MIC's in Table X were obtained using conventional broth-dilution microtiter tests.

Streptococcus sp. 19F = assay: MIC, broth-dilution microtiter test (Table X); assay type: cell-based
From the text: as §2

[3] = test system: Mycoplasma hyopneumoniae S5972; assay: MIC, broth-dilution microtiter test (Table X); assay type: cell-based
From the text: as §2

[4] = test system: Mycoplasma gallisepticum 29C; assay: MIC, broth-dilution microtiter test (Table X); assay type: cell-based
From the text: as §2

[5] = test system: Pasteurella multocida 60A; assay: MIC, broth-dilution microtiter test (Table X); assay type: cell-based; settings: Avian isolate
From the text: as §2

[6] = test system: Pasteurella hemolytica 22C; assay: MIC, broth-dilution microtiter test (Table X); assay type: cell-based
From the text: as §2

Staphylococcus aureus = assay: MIC, broth-dilution microtiter test (Table X); assay type: cell-based
From the text: as §2

Mycoplasma hyorhinis 29E = assay: MIC, broth-dilution microtiter test (Table X); assay type: cell-based
From the text: as §2

Mycoplasma synoviae 40A = assay: MIC, broth-dilution microtiter test (Table X); assay type: cell-based
From the text: as §2

[7] = Titratable groups in 66% aqueous DMF (Tables XIV-XVI); assay type: physicochemical
From the text: ^c Run in 66% aqueous DMF
^d Run in 66% aqueous DMF

Escherichia coli EC14 = assay: MIC, standard agar-dilution assay (Table IX); assay type: cell-based
[8] = test system: Staphylococcus aureus V41; assay: MIC, standard agar-dilution assay (Table IX); assay type: cell-based; settings: Staphylococcus aureus V41, Penicillin-resistant strain
[9] = test system: Streptococcus Group D X66; assay: MIC, standard agar-dilution assay (Table IX); assay type: cell-based
Staphyloccus aureus X1.1 = assay: MIC, standard agar-dilution assay (Table IX); assay type: cell-based, Staphylococcus aureus
Escherichia coli TEM = assay: MIC, standard agar-dilution assay (Table IX); assay type: cell-based
Pasteurella multocida [10] = assay: Pasteurella infection in one-day-old chicks, subcutaneous administration (Table XII); assay type: in vivo; settings: Administered subcutaneously, 30 mg/kg × 2, 1 and 4 hours post-challenge
Description: as §1
^a Administered subcutaneously; 30 mg/kg × 2

Escherichia coli N10 = assay: MIC, standard agar-dilution assay (Table IX); assay type: cell-based
Klebsiella X26 = assay: MIC, standard agar-dilution assay (Table IX); assay type: cell-based
[11] = test system: Staphylococcus epidermidis 222; assay: MIC, standard agar-dilution assay (Table IX); assay type: cell-based
[12] = test system: Streptococcus pneumoniae Park I; assay: MIC, standard agar-dilution assay (Table IX); assay type: cell-based; settings: Streptococcus pneumoniae Park I, agar-dilution
[13] = test system: Staphylococcus aureus X400; assay: MIC, standard agar-dilution assay (Table IX); assay type: cell-based; settings: Staphylococcus aureus X400, Methicillin-resistant strain
[14] = test system: Staphylococcus aureus S13E; assay: MIC, standard agar-dilution assay (Table IX); assay type: cell-based
[15] = test system: Streptococcus Group D 2041; assay: MIC, standard agar-dilution assay (Table IX); assay type: cell-based
[16] = test system: Streptococcus pyogenes C203; assay: MIC, standard agar-dilution assay (Table IX); assay type: cell-based
[17] = test system: Staphylococcus epidermidis EPI1; assay: MIC, standard agar-dilution assay (Table IX); assay type: cell-based; settings: Staphylococcus epidermidis EPI1, agar-dilution
[18] = test system: Haemophilus influenzae C.L.; assay: MIC, standard agar-dilution assay (Table IX); assay type: cell-based; settings: Ampicillin-sensitive strain
[19] = test system: Haemophilus influenzae 76; assay: MIC, standard agar-dilution assay (Table IX); assay type: cell-based; settings: Haemophilus influenzae 76, Ampicillin-resistant strain
[20] = test system: Streptococcus pyogenes C203; assay: ED50 in mice experimentally infected with S. pyogenes C203 (Table XI); assay type: in vivo; settings: Streptococcus pyogenes, doses given 1 and 4 hours postinfection, read-out: ED50
Outline: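 Mice infected with S. pyogenes C203 received two doses of compound, 1 and 4 h post-infection. ED50 is the dose in mg/kg (per dose, ×2) protecting 50% of animals.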

[21] = Mesomycoplasma hyopneumoniae, read-out: MIC
[22] = Mycoplasmoides gallisepticum, read-out: MIC
[23] = Mycoplasmopsis synoviae, read-out: MIC
[24] = Staphylococcus aureus, read-out: MIC

CCC1OC(=O)CC(O)C(C)C(OC2OC(C)C(O)C(N(C)C)C2O)C(CCN2C3CCCCC3C3CCCCC32)CC(C)C(=O)C=CC(C)=CC1COC1OC(C)C(O)C(OC)C1OC (stereo not drawn) [Compound D25, 20-DH-DO-20-(Dodecahydrocarbazol-9-yl) desmycosin]
Number of Deaths/Number Treated (Pasteurella multocida [1]): 7/10 | MIC ([2]; read-out: MIC): 12.5 µg/mL (≈ 13.4 µM) | MIC (Streptococcus sp. 19F; read-out: MIC): 3.12 µg/mL (≈ 3.34 µM) | MIC [3, 21]: 0.39 µg/mL (≈ 0.417 µM) | MIC [4, 22]: 0.39 µg/mL (≈ 0.417 µM) | MIC ([5]; read-out: MIC): 12.5 µg/mL (≈ 13.4 µM) | MIC ([6]; read-out: MIC): 3.12 µg/mL (≈ 3.34 µM) | MIC (Staphylococcus aureus; read-out: MIC): 3.12 µg/mL (≈ 3.34 µM) | MIC (Mycoplasma hyorhinis 29E; read-out: MIC): 12.5 µg/mL (≈ 13.4 µM) | MIC (Mycoplasma synoviae 40A; [23]): 0.097 µg/mL (≈ 0.104 µM) | pKa ([7]; Titratable groups): 9.95 | pKa ([7]; Titratable groups (first value)): 7.95 | MIC (Escherichia coli EC14; read-out: MIC): 128 µg/mL (≈ 137 µM) | MIC ([8]; read-out: MIC): 0.5 µg/mL (≈ 0.535 µM) | MIC ([9]; read-out: MIC): 4 µg/mL (≈ 4.28 µM) | MIC (Staphyloccus aureus X1.1; [24]): 0.5 µg/mL (≈ 0.535 µM) | MIC (Escherichia coli TEM; read-out: MIC): 32 µg/mL (≈ 34.2 µM) | Number of Deaths/Number Treated (Pasteurella multocida [10]): 0/10 | MIC (Escherichia coli N10; read-out: MIC): 128 µg/mL (≈ 137 µM) | MIC (Klebsiella X26; read-out: MIC): 128 µg/mL (≈ 137 µM) | MIC ([11]; read-out: MIC): 0.25 µg/mL (≈ 0.267 µM) | MIC ([12]; read-out: MIC): 0.5 µg/mL (≈ 0.535 µM) | MIC ([13]; read-out: MIC): 1 µg/mL (≈ 1.07 µM) | MIC ([14]; Staphylococcus aureus, S13E): 0.5 µg/mL (≈ 0.535 µM) | MIC ([15]; GROUPD2041, read-out: MIC): 4 µg/mL (≈ 4.28 µM) | MIC ([16]; read-out: MIC): 0.25 µg/mL (≈ 0.267 µM) | MIC ([17]; read-out: MIC): 0.5 µg/mL (≈ 0.535 µM) | MIC ([18]; read-out: MIC): 16 µg/mL (≈ 17.1 µM) | MIC ([19]; read-out: MIC): 8 µg/mL (≈ 8.55 µM)

CCC1OC(=O)CC(O)C(C)C(OC2OC(C)C(O)C(N(C)C)C2O)C(CCN2CCC(C)CC(C)(C)C2)CC(C)C(=O)C=CC(C)=CC1COC1OC(C)C(O)C(OC)C1OC (single isomer, unassigned) [Compound D23, 20-DH-DO-20-(3,3,5-Trimethylhexahydroazepin-1-yl)desmycosin]
Number of Deaths/Number Treated (Pasteurella multocida [1]): 4/10 | MIC [2]: 6.25 µg/mL (≈ 6.97 µM) | MIC (Streptococcus sp. 19F): 1.56 µg/mL (≈ 1.74 µM) | MIC [3]: 0.78 µg/mL (≈ 0.869 µM) | MIC [4]: 0.097 µg/mL (≈ 0.108 µM) | MIC [5]: 12.5 µg/mL (≈ 13.9 µM) | MIC [6]: 3.12 µg/mL (≈ 3.48 µM) | MIC (Staphylococcus aureus): 3.12 µg/mL (≈ 3.48 µM) | MIC (Mycoplasma hyorhinis 29E): 6.25 µg/mL (≈ 6.97 µM) | MIC (Mycoplasma synoviae 40A): 0.097 µg/mL (≈ 0.108 µM) | Titratable groups [7]: 9.0 | Titratable groups (first value) [7]: 7.7 | MIC (Escherichia coli EC14): 64 µg/mL (≈ 71.3 µM) | MIC [8]: 0.5 µg/mL (≈ 0.557 µM) | MIC [9]: 4 µg/mL (≈ 4.46 µM) | MIC (Staphyloccus aureus X1.1): 0.5 µg/mL (≈ 0.557 µM) | MIC (Escherichia coli TEM): 32 µg/mL (≈ 35.7 µM) | Number of Deaths/Number Treated (Pasteurella multocida [10]): 8/10 | MIC (Escherichia coli N10): 64 µg/mL (≈ 71.3 µM) | MIC (Klebsiella X26): 128 µg/mL (≈ 143 µM) | MIC [11]: 0.5 µg/mL (≈ 0.557 µM) | MIC [12]: 0.5 µg/mL (≈ 0.557 µM) | MIC [13]: 1 µg/mL (≈ 1.11 µM) | MIC ([14]; Staphylococcus aureus S13E, agar-dilution): 0.5 µg/mL (≈ 0.557 µM) | MIC [15]: 8 µg/mL (≈ 8.92 µM) | MIC [16]: 0.5 µg/mL (≈ 0.557 µM) | MIC [17]: 0.5 µg/mL (≈ 0.557 µM) | MIC [18]: 16 µg/mL (≈ 17.8 µM) | MIC [19]: 8 µg/mL (≈ 8.92 µM)

CCC1OC(=O)CC(O)C(C)C(OC2OC(C)C(O)C(N(C)C)C2O)C(CCN2CCCc3ccccc32)CC(C)C(=O)C=CC(C)=CC1COC1OC(C)C(O)C(OC)C1OC (stereo not drawn) [Compound D11, 20-DH-DO-20-(1,2,3,4-Tetrahydroquinolin-1-yl)desmycosin]
Number of Deaths/Number Treated (Pasteurella multocida [1]): 8/10 | MIC ([2]; read-out: MIC): 12.5 µg/mL (≈ 14.1 µM) | MIC (Streptococcus sp. 19F; read-out: MIC): 3.12 µg/mL (≈ 3.51 µM) | MIC [3, 21]: 1.56 µg/mL (≈ 1.75 µM) | MIC [4, 22]: ≤ 0.048 µg/mL | MIC ([5]; read-out: MIC): 50 µg/mL (≈ 56.2 µM) | MIC ([6]; read-out: MIC): 25 µg/mL (≈ 28.1 µM) | MIC (Staphylococcus aureus; read-out: MIC): 1.56 µg/mL (≈ 1.75 µM) | MIC (Mycoplasma hyorhinis 29E; read-out: MIC): 6.25 µg/mL (≈ 7.03 µM) | MIC (Mycoplasma synoviae 40A; [23]): 0.78 µg/mL (≈ 0.877 µM) | MIC (Escherichia coli EC14; read-out: MIC): > 128 µg/mL | MIC ([8]; read-out: MIC): 0.5 µg/mL (≈ 0.562 µM) | MIC ([9]; read-out: MIC): 8 µg/mL (≈ 9 µM) | MIC (Staphyloccus aureus X1.1; [24]): 0.5 µg/mL (≈ 0.562 µM) | ED50 ([20]; C203, Oral): 19 mg/kg | ED50 ([20]; C203, sc, Subcutaneous): 7.5 mg/kg | MIC (Escherichia coli TEM; read-out: MIC): > 128 µg/mL | Number of Deaths/Number Treated (Pasteurella multocida [10]): 10/10 | MIC (Escherichia coli N10; read-out: MIC): > 128 µg/mL | MIC (Klebsiella X26; read-out: MIC): > 128 µg/mL | MIC ([11]; read-out: MIC): 0.25 µg/mL (≈ 0.281 µM) | MIC ([12]; read-out: MIC): 2 µg/mL (≈ 2.25 µM) | MIC ([13]; read-out: MIC): 0.5 µg/mL (≈ 0.562 µM) | MIC ([14]; Staphylococcus aureus, S13E): 0.5 µg/mL (≈ 0.562 µM) | MIC ([15]; GROUPD2041, read-out: MIC): 8 µg/mL (≈ 9 µM) | MIC ([16]; read-out: MIC): 0.5 µg/mL (≈ 0.562 µM) | MIC ([17]; read-out: MIC): 0.5 µg/mL (≈ 0.562 µM) | MIC ([18]; read-out: MIC): 64 µg/mL (≈ 72 µM) | MIC ([19]; read-out: MIC): 8 µg/mL (≈ 9 µM)
